Columns and labels:
[1] = test system: muscle-invasive urothelial cell carcinoma of the bladder; test: Clinical response assessment after TAR-200 induction (cystoscopy, CT/MRI/PET, biopsy); assay type: in vivo, human
Experimental: (§1) Subjects receive the first TAR-200 transurethrally via the TARIS Inserter on Study Day 0. On Study Day 21 (±3 days), this first TAR-200 will be removed via flexible or rigid cystoscopy, and then the second TAR-200 will be placed. TAR-200 is an intravesicular device that contains 225 mg of gemcitabine. This removal/replacement procedure is repeated for a third and fourth dosing cycle in the induction period on Study Days 42 (±3 days), and 63 (±3 days), respectively. The fourth TAR-200 will be removed on Study Day 84 (±3 days), and the 3-month response assessment will be conducted.
During the maintenance period, a 21-day dosing cycle occurs every quarter (3 months) starting at approximately 6 months. Subjects may continue to undergo quarterly dosing cycles for 3 dosing cycles.
All subjects are assessed for clinical response every 3 months by cystoscopy, pelvic computed tomography (CT)/magnetic resonance imaging (MRI)/positron emission tomography (PET), and biopsy (at 12 weeks only, unless clinically indicated). Subjects are also assessed for symptom control at 3, 6, 9, and 12 weeks, and approximately every month during the maintenance period.
The secondary endpoints are proportion of subjects with clinical complete response (cCR), clinical partial response (cPR), stable disease (SD), and progression on the basis of visual lesions on cystoscopy, pelvic CT/MRI/PET, and biopsy. For purposes of this study, cCR means no evidence of the disease in the bladder or notes. cPR means in the previously N0 subject, a down staging in bladder tumor burden to <pT2 disease and no evidence of nodal disease burden or in the N1-N3 subject: a down staging in bladder tumor burden to <pT2 disease and no evidence of an increase in the size of nodal disease burden or no evidence of down staging in bladder tumor burden and a decrease in the size of nodal disease burden. Stable disease means persistent MIBC without evidence of metastasis. Progression means M1 disease or significant increase in burden of disease in bladder based upon cystoscopy and Ct/MRI/PET. […]

[2] = Safety and tolerability of 4 consecutive 21 day TAR-200 dosing cycles; assay type: in vivo, human; conditions: four consecutive 3-week delivery periods; patients unfit for radical cystectomy
Experimental: as §1
The primary endpoint is assessment of safety and tolerability of 4 consecutive 21 day TAR-200 dosing cycles.
Twenty three patients were enrolled in the study as described in Example 1. The age range among the enrolled patients is from 50 to 98. The mean age is 82.6, and the median age is 84. The patients were treated and assessed according to the methods described therein. Patients that accomplished a complete response, partial response or stable disease after the induction phase received the maintenance phase treatment.

Nc1ccn([C@@H]2O[C@H](CO)[C@@H](O)C2(F)F)c(=O)n1 [gemcitabine]
duration of durable effect after the induction therapy ([1]; after the induction therapy): at least 100 days | objective response rate (ORR) ([1]; per protocol basis, end of induction period (Day 84)): 80% | complete response rate ([1]; per protocol basis, end of induction period (Day 84), ten patients who completed four cycles): 50% | tolerability of four consecutive doses (induction) [2]: well tolerate

Reference: patent publication US12636300B2, “Methods of treatment and maintenance therapy for bladder cancer using gemcitabine” (Janssen Biotech, Inc., priority 2017, dated 2026)
